These results are taken from ChEMBL document CHEMBL3046755, “Synthesis and Herbicidal Activity of N-Alkyl-N-(substituted benzyl)-4-halo-2-alkenamides” (1999).

Activity calls are given as the source filed them. The rule behind the calls is not given here.

In test [1] the test system is Echinochloa oryzicola. In words: Herbicidal activity against Echinochloa oryzicola seedlings assessed as induction of seedlings damage measured after 3 weeks post compound application through paddy water. In kind it is functional.
The test system of test [2] is Echinochloa oryzicola. The test can be described thus: Light dependent herbicidal activity against Echinochloa oryzicola seedlings assessed as inhibition of seedlings growth at 10 ppm measured after 6 days post compound application under greenhouse conditions at 25 +/- 2 degC with day light. In kind it is functional, organism-based.
For test [3], the system named is Echinochloa oryzicola. In words: Potency index, ratio of ED90 for chlomethoxyfen to ED90 for test compound for herbicidal activity against Echinochloa oryzicola seedling. In kind it is functional.
The subject of test [4] is Echinochloa oryzicola. The test can be described thus: Light dependent herbicidal activity against Echinochloa oryzicola seedlings assessed as inhibition of seedlings growth at 10 ppm measured after 6 days post compound application under greenhouse conditions at 25 +/- 2 degC under dark conditions. In kind it is functional, organism-based.

Regarding `CC(Cl)/C=C/C(=O)N(Cc1ccc(Cl)c([N+](=O)[O-])c1)CC(C)C` (racemic), the ED90 in the test with Echinochloa oryzicola [1] is listed as 31 gAi/ha. The “growth inhibition (GI)” value in the test on Echinochloa oryzicola [2] was “Active”. In the case of `COc1ccc(Cl)c(CN(CC(C)C)C(=O)/C=C/C(C)Cl)c1` (racemic), the ED90 in the test with Echinochloa oryzicola [1] turned out to be 31 gAi/ha. Further, in the test on Echinochloa oryzicola [2], the “growth inhibition (GI)” value was “Active”. The matching figures for `CC(Br)/C=C/C(=O)N(Cc1ccc(Cl)cc1)CC(C)C` (racemic): 125 gAi/ha and “Active”.

In the case of `CC(Cl)/C=C/C(=O)N(Cc1ccc(Cl)cc1)C(C)(C)C` (racemic), the ED90 in the test with Echinochloa oryzicola [1] is on record as >5000 gAi/ha. For the same compound, the “growth inhibition (GI)” value in the test on Echinochloa oryzicola [2] is “Active”. With `COc1cc(Cl)ccc1CN(CC(C)C)C(=O)/C=C/C(C)Cl` (racemic), the ED90 in the test on Echinochloa oryzicola [1] is 500 gAi/ha. Besides, the “growth inhibition (GI)” value in the test on Echinochloa oryzicola [2] is “Active”. In the same order, the values of `CCOC(=O)c1cc(CN(CC(C)C)C(=O)/C=C/C(C)Cl)ccc1Cl` (racemic) are <16 gAi/ha and “Active”. Regarding `CCC(Br)/C=C/C(=O)N(Cc1ccc(Cl)cc1)CC(C)C` (racemic), in the test on Echinochloa oryzicola [1], the ED90 is reported as 125 gAi/ha. On the same count and under the same terms, the value for `CCCCCCC(Br)/C=C/C(=O)N(Cc1ccc(Cl)cc1)CC(C)C` (racemic) was 5000 gAi/ha. With `COc1cc(CN(CC(C)C)C(=O)/C=C/C(C)Cl)ccc1Cl` (racemic), in the test with Echinochloa oryzicola [1], the ED90 is 16 gAi/ha. The “growth inhibition (GI)” value with Echinochloa oryzicola [2] was “Active”.

Turning to `CC(Cl)/C=C/C(=O)N(Cc1ccc(S(C)(=O)=O)cc1)CC(C)C` (racemic), the ED90 in the test on Echinochloa oryzicola [1] is >1000 gAi/ha. In addition, the “growth inhibition (GI)” value with Echinochloa oryzicola [2] was “Active”. On to `CC(Cl)/C=C/C(=O)N(Cc1ccc(Cl)cc1Cl)CC(C)C` (racemic), for which the ED90 with Echinochloa oryzicola [1] was determined as 125 gAi/ha. Moreover, the “growth inhibition (GI)” value with Echinochloa oryzicola [2] is “Active”.

As to `CCCCCCCCN(Cc1ccc(Cl)cc1)C(=O)/C=C/C(C)Cl` (racemic), the ED90 with Echinochloa oryzicola [1] is >5000 gAi/ha. In the test on Echinochloa oryzicola [2], the “growth inhibition (GI)” value was “Active”. Consider `CCCC(Cl)/C=C/C(=O)N(Cc1ccc(Cl)cc1)CC(C)C` (racemic), for which the ED90 with Echinochloa oryzicola [1] is on record as 500 gAi/ha.

As for `CC(Cl)/C=C/C(=O)N(Cc1ccc(Cl)cc1)CC(C)C` (racemic), the Ratio in the test with Echinochloa oryzicola [3] was 10. Also, the ED90 with Echinochloa oryzicola [1] amounted to 16 gAi/ha. Besides, the “growth inhibition (GI)” value in the test with Echinochloa oryzicola [2] was “Active”. On to `COc1cc(CN(CC(C)C)C(=O)/C=C/C(C)Cl)ccc1C#N` (racemic), for which, in the test with Echinochloa oryzicola [1], the ED90 stood at 16 gAi/ha. Moreover, the “growth inhibition (GI)” value in the test on Echinochloa oryzicola [2] was “Active”. The matching figures for `COc1ccc(Cl)cc1CN(CC(C)C)C(=O)/C=C/C(C)Cl` (racemic): >1000 gAi/ha and “Active”. The matching figures for `CC(Cl)/C=C/C(=O)N(C)Cc1ccc(Cl)cc1` (racemic): 2000 gAi/ha and “Active”. As to `CCCOc1ccc(Cl)c(CN(CC(C)C)C(=O)/C=C/C(C)Cl)c1` (racemic), the ED90 in the test on Echinochloa oryzicola [1] worked out at 62 gAi/ha. For the same compound, the “growth inhibition (GI)” value in the test on Echinochloa oryzicola [2] is “Active”.

As for `CCCC(Br)/C=C/C(=O)N(Cc1ccc(Cl)cc1)CC(C)C` (racemic), in the test with Echinochloa oryzicola [1], the ED90 stood at 250 gAi/ha.

As for `CCCCCCCCC(Br)/C=C/C(=O)N(Cc1ccc(Cl)cc1)CC(C)C` (racemic), in the test with Echinochloa oryzicola [1], the ED90 was >5000 gAi/ha. Consider `CC(Cl)/C=C/C(=O)N(Cc1cc(OS(C)(=O)=O)ccc1Cl)CC(C)C` (racemic), for which the ED90 with Echinochloa oryzicola [1] was 31 gAi/ha. For the same compound, the “growth inhibition (GI)” value with Echinochloa oryzicola [2] was “Active”. With `CC(Cl)/C=C/C(=O)N(Cc1ccc(C(F)(F)F)cc1)CC(C)C` (racemic), in the test on Echinochloa oryzicola [1], the ED90 was 31 gAi/ha. In addition, the “growth inhibition (GI)” value in the test with Echinochloa oryzicola [2] was “Active”. Consider `CC(Cl)/C=C/C(=O)N(Cc1ccccc1C#N)CC(C)C` (racemic), for which, in the test with Echinochloa oryzicola [1], the ED90 was found to be 250 gAi/ha. In addition, the “growth inhibition (GI)” value in the test with Echinochloa oryzicola [2] was “Active”. The matching figures for `CC(Cl)/C=C/C(=O)N(Cc1ccccc1)CC(C)C` (stereo not given): 125 gAi/ha and “Active”. As for `CCCOCCN(C(=O)CCl)c1c(CC)cccc1CC`, in the test on Echinochloa oryzicola [4], the “growth inhibition (GI)” value was “Active”.

In the case of `CC(Cl)/C=C/C(=O)N(CCC(C)C)Cc1ccc(Cl)cc1` (racemic), in the test with Echinochloa oryzicola [1], the ED90 is <16 gAi/ha. Further, the “growth inhibition (GI)” value in the test with Echinochloa oryzicola [2] is “Active”. In the same order, the values of `CC(Cl)/C=C/C(=O)N(Cc1ccc([N+](=O)[O-])cc1)CC(C)C` (racemic) are 250 gAi/ha and “Active”.

As to `CC(Cl)/C=C/C(=O)N(Cc1ccc(C(N)=O)cc1)CC(C)C` (racemic), the ED90 in the test on Echinochloa oryzicola [1] was found to be 500 gAi/ha. Moreover, the “growth inhibition (GI)” value in the test with Echinochloa oryzicola [2] is “Active”. As for `CC(Cl)/C=C/C(=O)N(Cc1ccc(C#N)cc1)CC(C)C` (mixture of isomers), in the test on Echinochloa oryzicola [1], the ED90 is given as 16 gAi/ha. Also, in the test with Echinochloa oryzicola [2], the “growth inhibition (GI)” value was “Active”.

For `COc1cc(Oc2ccc(Cl)cc2Cl)ccc1[N+](=O)[O-]` [CHLOMETHOXYFEN], the ED90 in the test with Echinochloa oryzicola [1] is recorded as 250 gAi/ha. Regarding `CCOc1cc(Oc2ccc(C(F)(F)F)cc2Cl)ccc1[N+](=O)[O-]`, the “growth inhibition (GI)” value in the test with Echinochloa oryzicola [2] was “Active”. With `CCC(Cl)/C=C/C(=O)N(Cc1ccc(Cl)cc1)CC(C)C` (racemic), in the test with Echinochloa oryzicola [1], the ED90 stood at 16 gAi/ha.

As to `CC(=O)Nc1ccc(CN(CC(C)C)C(=O)/C=C/C(C)Cl)cc1` (racemic), in the test on Echinochloa oryzicola [1], the ED90 is listed as >5000 gAi/ha. The “growth inhibition (GI)” value in the test on Echinochloa oryzicola [2] was “Active”. The matching figures for `CC(Cl)/C=C/C(=O)N(Cc1ccc(Cl)cc1)C1CCCCC1` (racemic): 31 gAi/ha and “Active”. With `CCN(Cc1ccc(Cl)cc1)C(=O)/C=C/C(C)Cl` (racemic), the ED90 with Echinochloa oryzicola [1] is 250 gAi/ha. Also, in the test on Echinochloa oryzicola [2], the “growth inhibition (GI)” value was “Active”. As to `CC(Cl)/C=C/C(=O)N(Cc1ccc(Cl)cc1)C1CCCCCC1` (racemic), in the test on Echinochloa oryzicola [1], the ED90 is reported as 62 gAi/ha. Also, the “growth inhibition (GI)” value in the test with Echinochloa oryzicola [2] is “Active”. The matching figures for `CCCOc1cc(CN(CC(C)C)C(=O)/C=C/C(C)Cl)ccc1Cl` (racemic): 31 gAi/ha and “Active”. The matching figures for `CC(Cl)/C=C/C(=O)N(Cc1ccc(C#N)cc1Cl)CC(C)C` (mixture of isomers): <16 gAi/ha and “Active”. With `CCCCC(Br)/C=C/C(=O)N(Cc1ccc(Cl)cc1)CC(C)C` (racemic), the ED90 in the test with Echinochloa oryzicola [1] was found to be 2500 gAi/ha. As to `CSc1ccc(CN(CC(C)C)C(=O)/C=C/C(C)Cl)cc1` (racemic), the ED90 in the test with Echinochloa oryzicola [1] is 250 gAi/ha. The “growth inhibition (GI)” value with Echinochloa oryzicola [2] was “Active”.

For `CC(Cl)/C=C/C(=O)N(Cc1ccc(C=O)cc1)CC(C)C` (racemic), the ED90 in the test on Echinochloa oryzicola [1] was determined as 1000 gAi/ha. For the same compound, in the test with Echinochloa oryzicola [2], the “growth inhibition (GI)” value is “Active”.

Regarding `CCOC(=O)c1ccc(CN(CC(C)C)C(=O)/C=C/C(C)Cl)cc1` (racemic), in the test on Echinochloa oryzicola [1], the ED90 is reported as 1000 gAi/ha. Moreover, the “growth inhibition (GI)” value in the test with Echinochloa oryzicola [2] was “Active”.

Take `CCCN(Cc1ccc(Cl)cc1)C(=O)/C=C/C(C)Cl` (racemic): the ED90 in the test with Echinochloa oryzicola [1] is listed as 125 gAi/ha. In addition, the “growth inhibition (GI)” value in the test with Echinochloa oryzicola [2] was “Active”. Take `CC(I)/C=C/C(=O)N(Cc1ccc(Cl)cc1)CC(C)C` (racemic): the ED90 in the test with Echinochloa oryzicola [1] is on record as 250 gAi/ha. Besides, in the test with Echinochloa oryzicola [2], the “growth inhibition (GI)” value was “Active”. In the same order, the values of `Cc1ccc(CN(CC(C)C)C(=O)/C=C/C(C)Cl)cc1` (racemic) are 125 gAi/ha and “Active”. Regarding `CC(C)CN(Cc1ccc(Cl)cc1)C(=O)/C=C/C(Br)C(C)C` (racemic), the ED90 in the test on Echinochloa oryzicola [1] turned out to be 250 gAi/ha. For `CC(Cl)/C=C/C(=O)N(Cc1cc(Cl)c(C#N)cc1Br)CC(C)C` (racemic), the ED90 in the test on Echinochloa oryzicola [1] is given as <16 gAi/ha. Also, in the test with Echinochloa oryzicola [2], the “growth inhibition (GI)” value was “Active”. Regarding `CC(Cl)/C=C/C(=O)N(Cc1cccc(C#N)c1)CC(C)C` (racemic), in the test on Echinochloa oryzicola [1], the ED90 was determined as 500 gAi/ha. Besides, in the test with Echinochloa oryzicola [2], the “growth inhibition (GI)” value was “Active”. In the same order, the values of `CCC(C)N(Cc1ccc(Cl)cc1)C(=O)/C=C/C(C)Cl` (racemic) are 375 gAi/ha and “Active”.

In the case of `CC(O)/C=C/C(=O)N(Cc1ccc(Cl)cc1)CC(C)C` (racemic), in the test with Echinochloa oryzicola [1], the ED90 is reported as >5000 gAi/ha. In addition, the “growth inhibition (GI)” value in the test with Echinochloa oryzicola [2] was “Active”.

As for `CC(Cl)/C=C/C(=O)N(Cc1ccc(C(=O)O)cc1)CC(C)C` (racemic), the ED90 in the test on Echinochloa oryzicola [1] was >5000 gAi/ha. The “growth inhibition (GI)” value in the test on Echinochloa oryzicola [2] is “Active”. With `CC(C)CN(Cc1ccc(Cl)cc1)C(=O)/C=C/CBr`, the ED90 in the test on Echinochloa oryzicola [1] is given as >4000 gAi/ha. On to `CCCCN(Cc1ccc(Cl)cc1)C(=O)/C=C/C(C)Cl` (racemic), for which, in the test with Echinochloa oryzicola [1], the ED90 came out at 31 gAi/ha. Further, in the test with Echinochloa oryzicola [2], the “growth inhibition (GI)” value is “Active”.

As for `CC(Cl)/C=C/C(=O)N(Cc1cc(Cl)ccc1OS(C)(=O)=O)CC(C)C` (racemic), in the test with Echinochloa oryzicola [1], the ED90 is >1000 gAi/ha. Besides, the “growth inhibition (GI)” value in the test with Echinochloa oryzicola [2] is “Active”. For `CC(Cl)/C=C/C(=O)N(Cc1ccc(Cl)c(OS(C)(=O)=O)c1)CC(C)C` (racemic), the ED90 in the test with Echinochloa oryzicola [1] came to 31 gAi/ha. Further, the “growth inhibition (GI)” value in the test with Echinochloa oryzicola [2] was “Active”. In the same order, the values of `CC(Cl)/C=C/C(=O)N(Cc1ccc(Cl)cc1)C(C)C` (racemic) are 250 gAi/ha and “Active”. The matching figures for `C=CCN(Cc1ccc(Cl)cc1)C(=O)/C=C/C(C)Cl` (racemic): 375 gAi/ha and “Active”. In the same order, the values of `CC(Cl)/C=C/C(=O)N(Cc1ccc(Cl)cc1OS(C)(=O)=O)CC(C)C` (racemic) are 500 gAi/ha and “Active”.
